Reference: article PMC7932537, “Quantitative profiling of protease specificity” (PLoS Computational Biology, 2021)

How the values were obtained:
MMP-2 = assay: Substrate phage display with NGS: relative probability (RP) of P3-P1' tetramer clusters; format: biochemical, human; conditions: for relative probability (RP) of matching tetramer: P3-P1' tetramer matching the MS detected MMP2 cleavage sequence, RP_above_4.5; for MMP2 relative probability (RP): MMP2 tetramers from unique substrates, unrounded values; for normalized RP - MMP2: normalized RP of matching tetramer; for avg_RP: MMP2 - no binning; for corresponding MMP2 relative probability (RP): MMP9 tetramers from unique substrates, RP of same tetramer for MMP2
MMP-9 = assay: as above; format: biochemical, human; conditions: for corresponding MMP9 relative probability (RP): MMP2 tetramers from unique substrates, RP of same tetramer for MMP9; for normalized RP - MMP9: normalized RP of matching tetramer; for MMP9 relative probability (RP): MMP9 tetramers from unique substrates, unrounded values
[1] = RP of the P3-P1' tetramer cluster contained in the hexamer, 200 nM MMP-2, 2 h, 37°C, two rounds of selection
[2] = MMP9, RP of the P3-P1' tetramer contained in the hexamer substrate (substrate phage display, NGS)
[3] = MMP2, RP of matching P3-P1' tetramer, common set of MMP2-9 selectome, RP above KL threshold
[4] = RP of matching tetramer, common MMP2-9 selectome
[5] = MMP9, RP of matching P3-P1' tetramer, common set of MMP2-9 selectome
[6] = MMP9, RP of the P3-P1' tetramer matching the MS detected cleavage, RP above 4.7, substrate phage display with NGS
[7] = RP of matching tetramer, common MMP2-9 selectome, RP above KL threshold
[8] = RP according to MMP2, P3-P1' tetramer of unique physiologic MMP2 substrates from MEROPS
[9] = RP of the P3-P1' tetramer, MMP2 substrate phage display/NGS, tetramers of physiologic MEROPS substrates common to MMP2 and MMP9
[10] = RP according to MMP9, P3-P1' tetramer of unique physiologic MMP9 substrates from MEROPS
[11] = RP of the P3-P1' tetramer, MMP9 substrate phage display/NGS, tetramers of physiologic MEROPS substrates common to MMP2 and MMP9
[12] = RP of matching tetramer, unique part of MMP2 selectome, RP above KL threshold
[13] = RP of matching tetramer, unique part of MMP2 selectome
[14] = average relative probability of the tetramer, redundant tetramers averaged out
[15] = tetramer projected onto MMP-9 cleavage sites determined by Prudova et al. (2010)
[16] = average relative probability (RP) of the P3-P1' tetramer, redundant tetramers have been averaged out

PRGFSH
relative probability (RP) (MMP-2; [1]): 32.9171 | relative probability (RP) (MMP-9; [2]): 42.5506

PVAV
relative probability (RP) (acc.to MMP2) (MMP-2; [3]): 27.53 | relative probability (RP) of matching tetramer (MMP-2): 27.53 | relative probability (RP) (acc.to MMP2) (MMP-2; [4]): 27.53 | relative probability (RP) (acc.to MMP9) (MMP-9; [5]): 32.82 | relative probability (RP) (MMP-9; [6]): 32.82 | relative probability (RP) (acc.to MMP9) (MMP-9; [7]): 32.82

VAEM
MMP2 relative probability (RP) (MMP-2): 19.6601 | Relative probability (RP) rank (MMP-2; [8]): 1857 | relative probability (RP) (MMP-2; [8]): 19.66 | relative probability (RP) (acc.to MMP2) (MMP-2; [9]): 19.66 | corresponding MMP9 relative probability (RP) (MMP-9): 2.985 | Relative probability (RP) rank (MMP-9; [10]): 7772 | relative probability (RP) (MMP-9; [10]): 2.99 | relative probability (RP) (acc.to MMP9) (MMP-9; [11]): 2.99

PHGLAT
relative probability (RP) (MMP-2; [1]): 32.9009 | relative probability (RP) (MMP-9; [2]): 46.2798

LAPL [P3-P1' tetramer cluster]
MMP2 relative probability (RP) (MMP-2): 31.5631 | Relative probability (RP) rank (MMP-2; [8]): 227 | relative probability (RP) (MMP-2; [8]): 31.56 | relative_probability (MMP-2; tetramer clusters unique to the MMP-2 selectome, MMP-2 RP): 31.56 | corresponding MMP9 relative probability (RP) (MMP-9): 4.642

ASDY
relative probability (RP) (acc.to MMP2) (MMP-2; [9]): 0.78 | relative probability (RP) (acc.to MMP9) (MMP-9; [11]): 0.38

PSPADI
relative probability (RP) (MMP-2; [1]): 23.2522 | relative probability (RP) (MMP-9; [2]): 25.0899

VRNI
relative probability (RP) (acc.to MMP2) (MMP-2; [3]): 25.21 | relative probability (RP) of matching tetramer (MMP-2): 25.21 | relative probability (RP) (acc.to MMP2) (MMP-2; [4]): 25.21 | relative probability (RP) (acc.to MMP9) (MMP-9; [5]): 38.1 | relative probability (RP) (MMP-9; [6]): 38.1 | relative probability (RP) (acc.to MMP9) (MMP-9; [7]): 38.1

PRPY
relative probability (RP) (acc.to MMP2) (MMP-2; [3]): 33.44 | relative probability (RP) of matching tetramer (MMP-2): 33.44 | relative probability (RP) (acc.to MMP2) (MMP-2; [4]): 33.44 | relative probability (RP) (acc.to MMP9) (MMP-9; [5]): 47.69 | relative probability (RP) (MMP-9; [6]): 47.69 | relative probability (RP) (acc.to MMP9) (MMP-9; [7]): 47.69

LAYL
relative probability (RP) of matching tetramer (MMP-2): 25.34 | relative probability (RP) (acc.to MMP2) (MMP-2; [12]): 25.34 | normalized RP - MMP2 (MMP-2; unique part of MMP2 selectome): 0.6939 | relative probability (RP) (acc.to MMP9) (MMP-9; [13]): 2.51 | normalized RP - MMP9 (MMP-9; unique part of MMP2 selectome): 0.04792

GPRYLM
relative probability (RP) (MMP-2; [1]): 30.5447 | relative probability (RP) (MMP-9; [2]): 44.5304

ANPV
relative probability (RP) (acc.to MMP2) (MMP-2; [9]): 0.04 | relative probability (RP) (acc.to MMP9) (MMP-9; [11]): 0.33

IRPKHF
relative probability (RP) (MMP-2; [1]): 19.1404 | relative probability (RP) (MMP-9; [2]): 30.1694

IGRF
MMP2 relative probability (RP) (MMP-2): 13.8957 | Relative probability (RP) rank (MMP-2; [8]): 3460 | relative probability (RP) (MMP-2; [8]): 13.9 | corresponding MMP9 relative probability (RP) (MMP-9): 0.4689

MSAF
MMP2 relative probability (RP) (MMP-2): 20.9521 | Relative probability (RP) rank (MMP-2; [8]): 1585 | relative probability (RP) (MMP-2; [8]): 20.95 | corresponding MMP9 relative probability (RP) (MMP-9): 1.271

PKWM [P3-P1' tetramer cluster]
avg_RP (MMP-2; [14]): 23.7433 | relative probability (RP) (MMP-9; tetramer probability in MMP9 set / naive library, 200 nM protease, 2 h, 37°C): 51.5185

GEPRGQ
relative probability (RP) (MMP-2; [1]): 29.4864 | relative probability (RP) (MMP-9; [2]): 42.1179

EMRL
corresponding MMP2 relative probability (RP) (MMP-2): 11.559 | MMP9 relative probability (RP) (MMP-9): 0.2922

QSPINL
relative probability (RP) (MMP-2; [1]): 31.6393 | relative probability (RP) (MMP-9; [2]): 44.8884

IGLM
MMP2 relative probability (RP) (MMP-2): 19.5116 | Relative probability (RP) rank (MMP-2; [8]): 1895 | relative probability (RP) (MMP-2; [8]): 19.51 | relative probability (RP) (acc.to MMP2) (MMP-2; [9]): 19.51 | corresponding MMP9 relative probability (RP) (MMP-9): 2.913 | Relative probability (RP) rank (MMP-9; [10]): 7888 | relative probability (RP) (MMP-9; [10]): 2.91 | relative probability (RP) (acc.to MMP9) (MMP-9; [11]): 2.91

PHPRLL
relative probability (RP) (MMP-2; [1]): 23.2612 | relative probability (RP) (MMP-9; [2]): 38.6219

QGPAAI
relative probability (RP) (MMP-2; [1]): 32.0972 | relative probability (RP) (MMP-9; [2]): 46.1642

PSLQ
MMP2 relative probability (RP) (MMP-2): 7.654 | Relative probability (RP) rank (MMP-2; [8]): 6015 | relative probability (RP) (MMP-2; [8]): 7.65 | relative probability (RP) (acc.to MMP2) (MMP-2; [9]): 7.65 | corresponding MMP9 relative probability (RP) (MMP-9): 1.544 | Relative probability (RP) rank (MMP-9; [10]): 11624 | relative probability (RP) (MMP-9; [10]): 1.54 | relative probability (RP) (acc.to MMP9) (MMP-9; [11]): 1.54

PPGL [P3-P1' tetramer cluster]
relative probability (RP) (acc.to MMP2) (MMP-2; [9]): 24.36 | relative probability (RP) (acc.to MMP9) (MMP-9; [11]): 34.4 | relative probability (RP) (MMP-9; [15]): 34.4

PRPL [P3-P1' tetramer cluster]
avg_RP (MMP-2; average relative probability of the P3-P1' tetramer, redundant tetramers have been averaged out): 34.3303 | relative probability (RP) (MMP-9; [15]): 46.79

PPGA
relative probability (RP) (acc.to MMP2) (MMP-2; [9]): 0 | relative probability (RP) (acc.to MMP9) (MMP-9; [11]): 0.07

PLRQIG
relative probability (RP) (MMP-2; [1]): 11.8624 | relative probability (RP) (MMP-9; [2]): 29.0862

LREL
relative probability (RP) (acc.to MMP2) (MMP-2; [3]): 21.53 | relative probability (RP) of matching tetramer (MMP-2): 21.53 | relative probability (RP) (acc.to MMP2) (MMP-2; [4]): 21.53 | relative probability (RP) (acc.to MMP9) (MMP-9; [5]): 21.21 | relative probability (RP) (MMP-9; [6]): 21.21 | relative probability (RP) (acc.to MMP9) (MMP-9; [7]): 21.21

QPPLPL
relative probability (RP) (MMP-2; [1]): 35.0814 | relative probability (RP) (MMP-9; [2]): 49.0268

PQPEGL
relative probability (RP) (MMP-2; [1]): 29.5031 | relative probability (RP) (MMP-9; [2]): 39.4116

LANM
avg_RP (MMP-2; [16]): 31.4114 | relative probability (RP) (acc.to MMP2) (MMP-2; [9]): 31.41 | relative probability (RP) (acc.to MMP9) (MMP-9; [11]): 5.47

RPEDLR
relative probability (RP) (MMP-2; [1]): 6.012 | relative probability (RP) (MMP-9; [2]): 13.0748

PEGL
relative probability (RP) (acc.to MMP2) (MMP-2; [9]): 29.5 | relative probability (RP) (acc.to MMP9) (MMP-9; [11]): 39.41

QRGI
avg_RP (MMP-2; [14]): 7.4836 | MMP2 relative probability (RP) (MMP-2): 7.484 | Relative probability (RP) rank (MMP-2; [8]): 6090 | relative probability (RP) (MMP-2; [8]): 7.48 | relative probability (RP) (acc.to MMP2) (MMP-2; [9]): 7.48 | corresponding MMP9 relative probability (RP) (MMP-9): 0.7406 | Relative probability (RP) rank (MMP-9; [10]): 19198 | relative probability (RP) (MMP-9; [10]): 0.74 | relative probability (RP) (acc.to MMP9) (MMP-9; [11]): 0.74

ARGI
avg_RP (MMP-2; [16]): 21.2616 | relative probability (RP) (acc.to MMP2) (MMP-2; [4]): 21.26 | relative probability (RP) (MMP-9; [6]): 31.4 | relative probability (RP) (acc.to MMP9) (MMP-9; [7]): 31.4

SFGL
corresponding MMP2 relative probability (RP) (MMP-2): 10.7897 | relative probability (RP) (acc.to MMP2) (MMP-2; [9]): 0.19 | MMP9 relative probability (RP) (MMP-9): 0.1902 | relative probability (RP) (acc.to MMP9) (MMP-9; [11]): 10.79

LPKPLR
relative probability (RP) (MMP-2; [1]): 33.5622 | relative probability (RP) (MMP-9; [2]): 48.2599

MAGM
MMP2 relative probability (RP) (MMP-2): 21.4504 | Relative probability (RP) rank (MMP-2; [8]): 1484 | relative probability (RP) (MMP-2; [8]): 21.45 | corresponding MMP9 relative probability (RP) (MMP-9): 0.06237

IGTY
relative probability (RP) of matching tetramer (MMP-2): 5.18 | relative probability (RP) (acc.to MMP2) (MMP-2; [12]): 5.18 | normalized RP - MMP2 (MMP-2; unique part of MMP2 selectome): 0.1418 | relative probability (RP) (acc.to MMP9) (MMP-9; [13]): 0.06 | normalized RP - MMP9 (MMP-9; unique part of MMP2 selectome): 0.001145

LGRY
relative probability (RP) of matching tetramer (MMP-2): 17.67 | relative probability (RP) (acc.to MMP2) (MMP-2; [12]): 17.67 | normalized RP - MMP2 (MMP-2; unique part of MMP2 selectome): 0.4838 | relative probability (RP) (acc.to MMP9) (MMP-9; [13]): 1.95 | normalized RP - MMP9 (MMP-9; unique part of MMP2 selectome): 0.03723

SDEL
relative probability (RP) (acc.to MMP2) (MMP-2; [9]): 0 | relative probability (RP) (acc.to MMP9) (MMP-9; [11]): 0

PRKQ
corresponding MMP2 relative probability (RP) (MMP-2): 15.8695 | MMP9 relative probability (RP) (MMP-9): 2.4663

NPMPIR
relative probability (RP) (MMP-2; [1]): 26.0717 | relative probability (RP) (MMP-9; [2]): 45.0822
